Measurements published in BindingDB's records for doi:10.1021/cb300623a (University of Washington, 2013).

Assays:
Experiment in all cases: Fluorescence Assay
Details in all cases: pH 7.5; 25 °C
[1] = target: Tyrosine-protein kinase ABL1 (Homo sapiens, UniProt P00519)
Excerpt: (§1) Fluorescence assay used for determination of catch and release efficiency.

[2] = target: Serine/threonine-protein kinase 10 (Homo sapiens, UniProt O94804)
Excerpt: as §1

[3] = target: Tyrosine-protein kinase CSK (Homo sapiens, UniProt P41240)
Excerpt: as §1

[4] = target: T1, Mitogen-activated protein kinase kinase kinase 5 (Homo sapiens, UniProt Q99683)
T1 sequence (Q99683 whole entry): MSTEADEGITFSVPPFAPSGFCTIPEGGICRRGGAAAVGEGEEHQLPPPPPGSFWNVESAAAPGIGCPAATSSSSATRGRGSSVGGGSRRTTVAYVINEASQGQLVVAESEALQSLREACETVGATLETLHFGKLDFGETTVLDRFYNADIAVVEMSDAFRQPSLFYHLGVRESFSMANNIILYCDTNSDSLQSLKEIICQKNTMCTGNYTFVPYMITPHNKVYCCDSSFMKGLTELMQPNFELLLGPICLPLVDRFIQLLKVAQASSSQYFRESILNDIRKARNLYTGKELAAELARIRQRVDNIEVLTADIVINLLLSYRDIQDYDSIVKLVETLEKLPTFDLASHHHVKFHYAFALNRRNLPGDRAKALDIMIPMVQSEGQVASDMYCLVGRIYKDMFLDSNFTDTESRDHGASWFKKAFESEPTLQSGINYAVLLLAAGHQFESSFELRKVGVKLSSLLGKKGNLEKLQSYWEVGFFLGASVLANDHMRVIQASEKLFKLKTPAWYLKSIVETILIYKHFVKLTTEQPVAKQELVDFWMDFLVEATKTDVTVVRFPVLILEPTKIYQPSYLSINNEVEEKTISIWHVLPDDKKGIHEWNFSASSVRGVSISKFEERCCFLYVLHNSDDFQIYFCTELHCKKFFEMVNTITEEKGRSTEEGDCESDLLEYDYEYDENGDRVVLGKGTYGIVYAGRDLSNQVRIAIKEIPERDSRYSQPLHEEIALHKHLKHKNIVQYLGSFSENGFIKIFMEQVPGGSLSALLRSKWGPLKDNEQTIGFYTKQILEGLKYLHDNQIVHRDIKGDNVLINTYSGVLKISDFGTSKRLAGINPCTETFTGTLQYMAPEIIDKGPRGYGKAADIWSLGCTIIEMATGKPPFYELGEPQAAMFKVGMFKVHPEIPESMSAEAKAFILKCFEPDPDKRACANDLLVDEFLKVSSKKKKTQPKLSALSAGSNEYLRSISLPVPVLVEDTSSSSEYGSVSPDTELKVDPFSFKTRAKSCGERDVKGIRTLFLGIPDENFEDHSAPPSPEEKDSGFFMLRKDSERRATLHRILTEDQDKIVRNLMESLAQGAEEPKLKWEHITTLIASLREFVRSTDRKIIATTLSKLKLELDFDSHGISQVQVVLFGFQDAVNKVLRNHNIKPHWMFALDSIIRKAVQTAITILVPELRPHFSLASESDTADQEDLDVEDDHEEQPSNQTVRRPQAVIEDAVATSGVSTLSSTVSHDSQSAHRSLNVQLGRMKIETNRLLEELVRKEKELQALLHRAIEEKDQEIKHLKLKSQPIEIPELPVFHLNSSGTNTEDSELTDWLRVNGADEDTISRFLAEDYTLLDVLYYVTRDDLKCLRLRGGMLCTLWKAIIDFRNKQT
Excerpt: as §1

[5] = target: T2, Interleukin-1 receptor-associated kinase 4 (Homo sapiens, UniProt Q9NWZ3)
T2 sequence (Q9NWZ3 whole entry): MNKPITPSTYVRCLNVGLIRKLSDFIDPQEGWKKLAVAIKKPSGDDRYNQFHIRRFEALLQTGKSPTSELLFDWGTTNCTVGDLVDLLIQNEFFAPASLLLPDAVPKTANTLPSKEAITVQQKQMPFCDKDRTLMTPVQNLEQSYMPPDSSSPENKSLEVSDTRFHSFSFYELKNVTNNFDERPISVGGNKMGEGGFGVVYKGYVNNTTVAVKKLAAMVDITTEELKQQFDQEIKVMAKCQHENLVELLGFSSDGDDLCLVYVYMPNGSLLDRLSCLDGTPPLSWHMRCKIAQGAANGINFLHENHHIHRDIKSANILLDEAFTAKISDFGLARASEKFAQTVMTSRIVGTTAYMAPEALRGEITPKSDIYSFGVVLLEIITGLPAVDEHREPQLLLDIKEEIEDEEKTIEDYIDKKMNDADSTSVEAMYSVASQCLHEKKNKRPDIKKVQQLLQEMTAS
Excerpt: as §1

[6] = target: Proto-oncogene tyrosine-protein kinase Src (Homo sapiens, UniProt P12931)
Proto-oncogene tyrosine-protein kinase Src, sequence (P12931 2-536 limits assumed): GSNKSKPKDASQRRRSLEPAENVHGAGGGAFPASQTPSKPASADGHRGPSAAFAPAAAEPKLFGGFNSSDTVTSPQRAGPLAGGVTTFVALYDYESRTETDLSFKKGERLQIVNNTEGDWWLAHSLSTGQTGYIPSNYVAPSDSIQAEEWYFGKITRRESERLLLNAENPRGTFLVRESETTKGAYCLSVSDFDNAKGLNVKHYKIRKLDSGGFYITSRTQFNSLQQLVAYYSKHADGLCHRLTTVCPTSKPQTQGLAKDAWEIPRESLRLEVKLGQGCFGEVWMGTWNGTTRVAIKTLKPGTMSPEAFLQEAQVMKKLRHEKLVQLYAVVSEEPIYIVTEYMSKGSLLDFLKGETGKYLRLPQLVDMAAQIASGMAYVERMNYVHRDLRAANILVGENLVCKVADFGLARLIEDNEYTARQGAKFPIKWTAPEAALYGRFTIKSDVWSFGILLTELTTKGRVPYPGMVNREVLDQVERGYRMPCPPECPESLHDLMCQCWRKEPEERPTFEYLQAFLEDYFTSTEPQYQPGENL
Excerpt: as §1

[7] = target: Tyrosine-protein kinase Lck (Homo sapiens, UniProt P06239)
Tyrosine-protein kinase Lck, sequence (P06239 whole entry): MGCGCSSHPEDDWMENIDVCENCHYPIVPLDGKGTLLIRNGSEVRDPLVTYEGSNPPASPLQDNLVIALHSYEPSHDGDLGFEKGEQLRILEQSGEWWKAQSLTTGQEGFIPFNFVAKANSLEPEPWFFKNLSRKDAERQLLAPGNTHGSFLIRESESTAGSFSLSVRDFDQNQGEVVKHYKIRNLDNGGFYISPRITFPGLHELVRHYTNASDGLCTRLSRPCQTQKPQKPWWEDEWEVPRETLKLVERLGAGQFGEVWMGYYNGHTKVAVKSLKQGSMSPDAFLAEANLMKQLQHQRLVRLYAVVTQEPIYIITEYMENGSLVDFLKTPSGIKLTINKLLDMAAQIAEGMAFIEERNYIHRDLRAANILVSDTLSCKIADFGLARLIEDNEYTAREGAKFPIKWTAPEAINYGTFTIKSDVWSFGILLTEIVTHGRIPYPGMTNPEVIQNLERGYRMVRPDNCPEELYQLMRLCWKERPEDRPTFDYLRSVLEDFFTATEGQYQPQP
Excerpt: as §1

[8] = target: Tyrosine-protein kinase HCK (Homo sapiens, UniProt P08631)
Tyrosine-protein kinase HCK, sequence (P08631 whole entry): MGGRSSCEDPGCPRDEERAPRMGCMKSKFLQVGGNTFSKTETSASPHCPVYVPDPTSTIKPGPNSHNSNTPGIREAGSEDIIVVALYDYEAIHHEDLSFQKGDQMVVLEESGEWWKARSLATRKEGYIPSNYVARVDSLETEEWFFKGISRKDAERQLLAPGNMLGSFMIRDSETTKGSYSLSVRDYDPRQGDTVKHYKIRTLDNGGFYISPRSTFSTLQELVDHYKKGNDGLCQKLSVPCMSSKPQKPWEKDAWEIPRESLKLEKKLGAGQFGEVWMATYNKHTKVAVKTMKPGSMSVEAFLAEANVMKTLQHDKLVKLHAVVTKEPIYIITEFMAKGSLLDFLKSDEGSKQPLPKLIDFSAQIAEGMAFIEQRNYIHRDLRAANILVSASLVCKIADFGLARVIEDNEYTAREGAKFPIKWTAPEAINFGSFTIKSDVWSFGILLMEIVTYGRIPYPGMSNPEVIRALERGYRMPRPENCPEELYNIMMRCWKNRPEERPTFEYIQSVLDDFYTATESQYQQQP
Excerpt: as §1

[9] = target: Serine/threonine-protein kinase PAK 5 (Homo sapiens, UniProt Q9P286)
Serine/threonine-protein kinase PAK 5, sequence (Q9P286 whole entry): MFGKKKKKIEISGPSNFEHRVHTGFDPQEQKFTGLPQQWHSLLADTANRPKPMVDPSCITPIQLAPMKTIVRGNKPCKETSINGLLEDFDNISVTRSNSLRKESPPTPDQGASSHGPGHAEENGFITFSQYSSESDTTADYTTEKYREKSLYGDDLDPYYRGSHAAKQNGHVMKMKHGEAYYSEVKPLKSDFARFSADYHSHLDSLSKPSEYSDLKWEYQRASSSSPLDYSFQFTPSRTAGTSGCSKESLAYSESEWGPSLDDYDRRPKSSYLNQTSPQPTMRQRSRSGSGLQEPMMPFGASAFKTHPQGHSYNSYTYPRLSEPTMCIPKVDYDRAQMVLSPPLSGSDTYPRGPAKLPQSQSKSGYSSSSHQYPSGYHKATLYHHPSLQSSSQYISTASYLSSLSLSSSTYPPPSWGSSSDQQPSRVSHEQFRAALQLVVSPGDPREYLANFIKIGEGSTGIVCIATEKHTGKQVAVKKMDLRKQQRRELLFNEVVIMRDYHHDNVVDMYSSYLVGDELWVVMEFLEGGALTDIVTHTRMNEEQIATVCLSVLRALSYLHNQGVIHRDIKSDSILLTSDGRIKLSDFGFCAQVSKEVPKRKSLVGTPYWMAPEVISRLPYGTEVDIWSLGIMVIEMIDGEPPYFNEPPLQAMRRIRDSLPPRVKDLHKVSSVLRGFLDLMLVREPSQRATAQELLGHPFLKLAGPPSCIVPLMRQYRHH
Excerpt: as §1

[10] = target: T3, Ephrin type-A receptor 3 (Homo sapiens, UniProt P29320)
T3 sequence (P29320 whole entry): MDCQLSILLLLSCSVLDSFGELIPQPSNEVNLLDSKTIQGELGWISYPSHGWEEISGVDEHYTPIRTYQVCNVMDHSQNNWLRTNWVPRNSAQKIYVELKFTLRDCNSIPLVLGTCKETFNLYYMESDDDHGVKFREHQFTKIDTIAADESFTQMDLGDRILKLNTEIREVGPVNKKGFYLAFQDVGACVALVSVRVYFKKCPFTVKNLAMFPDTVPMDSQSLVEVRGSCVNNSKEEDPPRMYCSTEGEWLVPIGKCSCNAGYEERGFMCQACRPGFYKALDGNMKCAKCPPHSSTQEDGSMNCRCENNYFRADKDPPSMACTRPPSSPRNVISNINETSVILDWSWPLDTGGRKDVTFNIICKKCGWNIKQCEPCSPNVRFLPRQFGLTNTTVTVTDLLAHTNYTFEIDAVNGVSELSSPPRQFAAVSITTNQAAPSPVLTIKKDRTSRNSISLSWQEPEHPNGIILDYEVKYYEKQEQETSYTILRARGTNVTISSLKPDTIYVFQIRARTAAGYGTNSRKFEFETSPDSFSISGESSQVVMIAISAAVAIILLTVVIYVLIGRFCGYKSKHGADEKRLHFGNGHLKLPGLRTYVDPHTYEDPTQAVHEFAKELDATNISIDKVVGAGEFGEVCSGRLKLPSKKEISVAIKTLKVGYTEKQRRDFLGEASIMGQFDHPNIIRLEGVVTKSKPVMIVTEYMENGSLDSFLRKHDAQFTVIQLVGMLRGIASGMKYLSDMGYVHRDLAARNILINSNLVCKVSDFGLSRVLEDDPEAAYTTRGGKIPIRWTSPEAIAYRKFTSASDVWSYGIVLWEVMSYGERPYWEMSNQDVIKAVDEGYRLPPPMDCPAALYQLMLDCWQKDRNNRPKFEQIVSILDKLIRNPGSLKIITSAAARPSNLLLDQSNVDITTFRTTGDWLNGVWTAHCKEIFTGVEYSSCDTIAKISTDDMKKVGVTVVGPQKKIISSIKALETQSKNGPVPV
Excerpt: as §1

[11] = target: Serine/threonine-protein kinase PAK 4 (Homo sapiens, UniProt O96013)
Serine/threonine-protein kinase PAK 4, sequence (O96013 whole entry): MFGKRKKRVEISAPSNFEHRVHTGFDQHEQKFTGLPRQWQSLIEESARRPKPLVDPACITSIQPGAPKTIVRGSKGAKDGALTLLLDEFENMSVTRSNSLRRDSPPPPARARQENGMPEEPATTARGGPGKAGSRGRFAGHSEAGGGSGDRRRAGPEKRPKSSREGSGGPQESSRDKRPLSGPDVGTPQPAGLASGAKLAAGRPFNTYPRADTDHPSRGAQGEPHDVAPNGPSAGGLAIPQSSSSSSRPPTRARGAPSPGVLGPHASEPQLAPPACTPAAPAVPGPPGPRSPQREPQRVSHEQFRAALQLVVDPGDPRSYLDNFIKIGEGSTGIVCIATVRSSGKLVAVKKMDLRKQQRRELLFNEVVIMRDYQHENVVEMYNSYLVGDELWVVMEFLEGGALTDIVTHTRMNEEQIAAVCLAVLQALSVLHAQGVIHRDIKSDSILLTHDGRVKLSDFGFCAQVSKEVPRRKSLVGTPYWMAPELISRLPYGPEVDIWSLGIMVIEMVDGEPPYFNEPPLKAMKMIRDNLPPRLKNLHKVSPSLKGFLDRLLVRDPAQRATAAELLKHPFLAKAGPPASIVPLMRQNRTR
Excerpt: as §1

Serine/threonine-protein kinase 10, sequence (O94804 whole entry): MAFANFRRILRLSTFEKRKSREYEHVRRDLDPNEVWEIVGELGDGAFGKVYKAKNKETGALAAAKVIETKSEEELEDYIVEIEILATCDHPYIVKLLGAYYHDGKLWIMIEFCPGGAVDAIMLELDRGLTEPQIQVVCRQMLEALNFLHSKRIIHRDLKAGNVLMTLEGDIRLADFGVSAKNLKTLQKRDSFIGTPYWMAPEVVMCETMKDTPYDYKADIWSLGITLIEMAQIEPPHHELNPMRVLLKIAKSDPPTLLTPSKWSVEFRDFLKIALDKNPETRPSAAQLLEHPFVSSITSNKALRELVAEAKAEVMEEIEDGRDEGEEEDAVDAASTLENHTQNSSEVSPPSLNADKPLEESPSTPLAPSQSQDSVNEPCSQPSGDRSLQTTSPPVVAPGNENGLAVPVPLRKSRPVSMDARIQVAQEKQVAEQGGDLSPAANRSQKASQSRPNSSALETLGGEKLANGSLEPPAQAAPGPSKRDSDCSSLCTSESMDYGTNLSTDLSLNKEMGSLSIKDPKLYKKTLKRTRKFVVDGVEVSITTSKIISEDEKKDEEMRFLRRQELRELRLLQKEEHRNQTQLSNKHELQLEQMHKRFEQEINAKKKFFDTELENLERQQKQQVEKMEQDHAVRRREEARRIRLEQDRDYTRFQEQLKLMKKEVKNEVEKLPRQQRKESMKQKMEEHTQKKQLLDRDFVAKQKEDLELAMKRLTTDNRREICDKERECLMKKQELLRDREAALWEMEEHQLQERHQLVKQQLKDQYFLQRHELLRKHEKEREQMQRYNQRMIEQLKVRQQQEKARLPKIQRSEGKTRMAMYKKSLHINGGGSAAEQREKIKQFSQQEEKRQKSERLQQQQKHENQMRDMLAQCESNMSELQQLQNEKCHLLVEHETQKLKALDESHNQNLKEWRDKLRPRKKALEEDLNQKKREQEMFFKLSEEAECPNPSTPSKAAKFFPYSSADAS
Tyrosine-protein kinase ABL1, sequence (P00519 whole entry): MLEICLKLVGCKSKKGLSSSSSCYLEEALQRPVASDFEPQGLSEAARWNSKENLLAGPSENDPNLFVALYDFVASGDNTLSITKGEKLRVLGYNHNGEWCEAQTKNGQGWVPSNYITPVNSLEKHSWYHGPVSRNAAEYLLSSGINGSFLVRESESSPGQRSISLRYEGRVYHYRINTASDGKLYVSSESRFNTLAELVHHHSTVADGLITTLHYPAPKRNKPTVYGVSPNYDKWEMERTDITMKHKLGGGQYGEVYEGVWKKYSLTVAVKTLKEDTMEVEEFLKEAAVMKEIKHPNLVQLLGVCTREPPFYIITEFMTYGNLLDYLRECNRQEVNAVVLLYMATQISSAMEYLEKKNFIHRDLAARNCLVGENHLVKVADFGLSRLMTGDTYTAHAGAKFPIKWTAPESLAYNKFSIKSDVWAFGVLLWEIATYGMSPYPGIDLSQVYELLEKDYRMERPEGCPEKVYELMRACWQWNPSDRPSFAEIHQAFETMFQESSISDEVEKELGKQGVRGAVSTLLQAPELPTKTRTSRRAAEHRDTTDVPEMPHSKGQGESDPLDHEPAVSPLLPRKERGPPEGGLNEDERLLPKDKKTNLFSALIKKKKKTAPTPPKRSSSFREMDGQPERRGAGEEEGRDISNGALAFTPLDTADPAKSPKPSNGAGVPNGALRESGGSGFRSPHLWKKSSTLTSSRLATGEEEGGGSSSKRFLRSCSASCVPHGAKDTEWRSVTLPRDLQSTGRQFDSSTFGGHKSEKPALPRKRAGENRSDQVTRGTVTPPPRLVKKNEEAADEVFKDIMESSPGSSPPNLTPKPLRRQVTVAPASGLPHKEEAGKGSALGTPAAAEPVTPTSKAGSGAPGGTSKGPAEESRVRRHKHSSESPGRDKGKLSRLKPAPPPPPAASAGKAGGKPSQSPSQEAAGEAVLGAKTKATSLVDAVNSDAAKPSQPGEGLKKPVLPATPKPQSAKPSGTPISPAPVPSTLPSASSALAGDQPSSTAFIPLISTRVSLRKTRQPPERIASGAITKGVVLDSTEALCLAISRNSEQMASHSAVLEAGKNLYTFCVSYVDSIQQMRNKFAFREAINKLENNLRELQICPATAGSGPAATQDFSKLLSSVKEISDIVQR

For Cc1ccc(NC(=O)c2cccc(C(F)(F)F)c2)cc1-c1ccc2nc(Nc3ccc(OCCN)cc3)ncc2c1 [Kinase inhibitor, 5], the IC50 [1] was less than 2 nM, the IC50 [2] was less than 10 nM and the IC50 [3] was 8.4 nM. The IC50 [4] was greater than 10000 nM, the IC50 [5] was greater than 10000 nM and the IC50 [6] was less than 2 nM. The IC50 [7] was less than 2 nM, the IC50 [8] was less than 0.5 nM and the IC50 [9] was greater than 10000 nM. It also gave an IC50 [10] of less than 10 nM and an IC50 [11] greater than 10000 nM.
